Common to all, as to format: in vivo
The test system of assay [1] is Erysiphe graminis tritici (powdery mildew). As to the kind of experiment: Test 1 greenhouse foliar spray screen, powdery mildew on wheat. The note with it: disease control rating, foliar spray on wheat, 400 ppm (+++ at 100 ppm).
The subject of assay [2] is Pyricularia oryzae (rice blast). As to the kind of experiment: whole plant or invertebrate. The settings on record: disease control rating, foliar spray on rice, 400 ppm (+++ at 100 ppm).
Assay [3] has as its system Puccinia recondita tritici (leaf rust). As to the kind of experiment: Test 1 greenhouse foliar spray screen, leaf rust on wheat. The note with it: disease control rating, foliar spray on wheat, 400 ppm (+++ at 100 ppm).
Assay [4] concerns Botrytis cinerea (gray mold). As to the kind of experiment: Test 1 greenhouse foliar spray screen, gray mold on grape berries. The note with it: disease control rating, spray on grape berries, 400 ppm (+++ at 100 ppm).
Assay [5] concerns Pseudoperonospora cubensis (downy mildew). As to the kind of experiment: Test 1 greenhouse foliar spray screen, downy mildew on squash. The note with it: disease control rating, foliar spray on squash, 400 ppm (+++ at 100 ppm).
In assay [6] the test system is southern armyworm (Spodopetra eridania Cramer). The experiment in a line: Mite/insect screen, SAW. The settings on record: Spodoptera eridania, percent mortality, read-out: SAW RESULTS %. The method in brief:
(§1)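 Compounds dissolved in acetone/alcohol (50:50) with TOXIMUL R and S emulsifiers, diluted in water to test concentrations, and sprayed to runoff on both leaf surfaces at 10 psi, then dried 1 h. For armyworm, excised treated leaves were offered to larvae; percent mortality scored after standard exposure periods.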

Assay [7] relates to Twospotted spider mites (Tetranychus urticae Koch). As to the kind of experiment: Mite/insect screen, SM. The note with it: Tetranychus urticae, percent mortality, read-out: SM RESULTS %. The method in brief: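 Compounds dissolved in 50:50 acetone/alcohol containing sulfonate/nonionic emulsifier blends, then diluted with water to the indicated concentrations. Leaves sprayed on both surfaces to runoff at 10 psi and dried one hour. Percent mortality scored after standard exposure periods.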

For assay [8], the system named is melon aphids (Aphis gossypii Glover). The experiment in a line: Mite/insect screen, MA. The settings on record: Aphis gossypii, percent mortality, read-out: MA RESULTS %. The method in brief: as §1
Another assay concerns corn rootworm. The experiment in a line: Mite/insect screen, CRW. The note with it: percent mortality, read-out: CRW RESULTS %. Summed up:
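Compounds dissolved in 50:50 acetone/alcohol with TOXIMUL R and S emulsifiers (23 and 13 g/L), then diluted in water to the stated test concentrations. Percent mortality of corn rootworm scored after standard exposure periods.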

Where [9] appears, read: foliar, rate 200 ppm, foliar spray on squash.
The mark [10] stands for this setting: foliar, rate 400 ppm, foliar spray on squash.

Where two headings read alike, the source gives them in different places.

As for `CC(=O)N(CCC1=CCCCC1)c1ccnc2c(C)ccc(C)c12` [Example 160, N-[2-(1-cyclohexenyl)ethyl]-N-(5,8-dimethyl-4-quinolinyl)acetamide], the “POWD MDEW” value in assay [1] was “- (0-19% control at 400 ppm)”. Further, in assay [2], the “RICE BLAST” value is recorded as “+ (20-89% control at 400 ppm)”. In addition, the “LEAF RUST” value in [3] was “- (0-19% control at 400 ppm)”. Also, the “GRAY MOLD” value in assay [4] is listed as “- (0-19% control at 400 ppm)”. Also, the “DOWN MDEW” value in assay [5] was “- (0-19% control at 400 ppm)”. The mortality at 200 ppm came to 0% in assay [6] (SAW, SM & MA RATE 200 PPM); 0% in assay [7] (SAW, SM & MA RATE 200 PPM); 0% in assay [8] (SAW, SM & MA RATE 200 PPM). In addition, the mortality at 400 ppm in [6] (SAW, SM & MA RATE 400 PPM) turned out to be 0%; in [7] (SAW, SM & MA RATE 400 PPM), 0%; in [8] (SAW, SM & MA RATE 400 PPM), 0%. Also, the mortality at 12 ppm in the assay with corn rootworm (CRW RATE 12.00 PPM) is 0%. For the same compound, in the assay with corn rootworm (CRW RATE 24.00 PPM), the mortality at 24 ppm stood at 0%.
`CC(=O)N(CCC1CCCCC1)c1ccnc2c(F)cccc12` [Example 161, N-(2-cyclohexylethyl)-N-(8-fluoro-4-quinolinyl)acetamide]: the “POWD MDEW” value in assay [1] was “+ (20-89% control at 400 ppm)”. In addition, the “RICE BLAST” value in assay [2] is reported as “+ (20-89% control at 400 ppm)”. Also, in assay [3], the “LEAF RUST” value is “- (0-19% control at 400 ppm)”. In assay [4], the “GRAY MOLD” value is given as “- (0-19% control at 400 ppm)”. Also, in assay [5], the “DOWN MDEW” value is “+ (20-89% control at 400 ppm)”. Further, the mortality at 200 ppm in assay [6] (SAW, SM & MA RATE 200 PPM) amounted to 0%; in [7] (SAW, SM & MA RATE 200 PPM), 0%; in assay [8] (SAW, SM & MA RATE 200 PPM), 0%. For the same compound, the mortality at 400 ppm was 0% in [6] (SAW, SM & MA RATE 400 PPM); 0% in assay [7] (SAW, SM & MA RATE 400 PPM); 80% in assay [8] (SAW, SM & MA RATE 400 PPM). Moreover, the mortality at 12 ppm in the assay on corn rootworm (CRW RATE 12.00 PPM) was found to be 0%. Besides, the mortality at 24 ppm with corn rootworm (CRW RATE 24.00 PPM) is 40%.
For `FC(F)(F)c1ccc2c(NCCC3=CCCCC3)ccnc2c1` [Example 167, N-[2-(1-cyclohexenyl)ethyl]-7-(trifluoromethyl)-4-quinolinamine], the “POWD MDEW” value in assay [1] was “+ (20-89% control at 400 ppm)”. In [2], the “RICE BLAST” value was “- (0-19% control at 400 ppm)”. Moreover, in assay [3], the “LEAF RUST” value was “- (0-19% control at 400 ppm)”. Also, in assay [4], the “GRAY MOLD” value is on record as “- (0-19% control at 400 ppm)”. Also, the “DOWN MDEW” value in assay [5] is listed as “+ (20-89% control at 400 ppm)”. The mortality at 200 ppm in assay [6] (setting [9]), in assay [7] (setting [9]) and in [8] (setting [9]) was 0% each time. Moreover, the mortality at 400 ppm in assay [6] (setting [10]), in assay [7] (setting [10]) and in assay [8] (setting [10]) was 0% throughout. Also, the mortality at 12 ppm with corn rootworm (CRW rate 12.00 ppm) worked out at 0%. For the same compound, the mortality at 24 ppm in the assay on corn rootworm (CRW rate 24.00 ppm) worked out at 0%.
In the case of `Fc1cccc2c(NCCC3CCCCC3)ccnc12` [Example 177, N-(2-cyclohexylethyl)-8-fluoro-4-quinolinamine], the “POWD MDEW” value in [1] is “++ (90-100% control at 400 ppm)”. Moreover, the “RICE BLAST” value in assay [2] is listed as “+++ (90-100% control at 100 ppm)”. In addition, the “LEAF RUST” value in assay [3] is on record as “+++ (90-100% control at 100 ppm)”. Moreover, the “GRAY MOLD” value in assay [4] is “- (0-19% control at 400 ppm)”. Also, the “DOWN MDEW” value in assay [5] is “+++ (90-100% control at 100 ppm)”. Moreover, the mortality at 200 ppm in [6] (setting [9]), in [7] (setting [9]) and in [8] (setting [9]) was 0% in each case. Besides, the mortality at 400 ppm in assay [6] (setting [10]), in assay [7] (setting [10]) and in assay [8] (setting [10]) was 0% in each case. For the same compound, the mortality at 12 ppm with corn rootworm (CRW rate 12.00 ppm) came to 0%. The mortality at 24 ppm with corn rootworm (CRW rate 24.00 ppm) came to 100%.

The values above are taken from patent EP0326331B1, “Substituted quinolines and cinnolines” (Dow AgroSciences LLC, priority 1988, dated 1989).
